Measurements reported in patent publication US20200345725A1, “Methods and Compositions for Treating Cancer” (Omeros Corporation, priority 2019, published 2020).
Where “and” joins values, the source holds several entries; their conditions need not be identical. Equal entries are not always repeated.

Key:
Format in all cases: cell-based
GPR174 [1] = molecular target: T1, GPR174 (Homo sapiens, UniProt Q9BXC1); experiment: Cellular redistribution assay (CRA) for GPR174
Source text: One method for identifying compounds capable of modulating a receptor is using a cellular redistribution assay (“CRA”). Exemplary CRA methods are found in U.S. Pat. No. 7,309,576 issued to O'Dowd et al. and in O'Dowd et al., J. Biomol. Screen. 12:175-85,2007. […] Incorporation of the NLS alters the cellular localization of the GPCR, such that the majority of the NLS-modified receptor is present in the cell interior. An NLS-modified GPCR, when interacting with a functionally active compound, is mostly localized on the cell surface. Thus, it becomes possible to identify receptor modulators without knowledge of the endogenous ligand or a surrogate ligand.
The inventors have identified a number of compounds that inhibit GPR174 using a CRA assay similar to that described in U.S. Pat. No. 7,309,576 and in O'Dowd et al., J. Biomol. Screen. 12:175-85, 2007. These compounds are described in detail below.
(§1) The inventors used a CRA similar to that described in U.S. Pat. No. 7,309,576 and O'Dowd et al., J. Biomol. Screen. 12:175-85, 2007 to identify compounds that are capable of interacting with GPR174 using a library of approximately 370,000 chemical entities. Briefly described, the CRA assay described in U.S. Pat. No. 7,309,576 involves artificially inserting a NLS into the dopamine D1 receptor (DRD1), which allows the receptor to traffic from the cell membrane to the cell interior, and that the binding of antagonists to the receptor retained the receptor at the cell surface, while removal of the ligand allowed the receptor to continue to internalize from the cell surface. Both antagonists and agonists that selectively bound the receptor retained the receptor on the plasma membrane. GPR174 constructs were generated for use in a CRA-based compound screening assay. From this screen, the inventors initially identified compounds of formula I-VI, as described herein and included in Table 1.
Target sequence in this assay (Q9BXC1 1-292 limits assumed): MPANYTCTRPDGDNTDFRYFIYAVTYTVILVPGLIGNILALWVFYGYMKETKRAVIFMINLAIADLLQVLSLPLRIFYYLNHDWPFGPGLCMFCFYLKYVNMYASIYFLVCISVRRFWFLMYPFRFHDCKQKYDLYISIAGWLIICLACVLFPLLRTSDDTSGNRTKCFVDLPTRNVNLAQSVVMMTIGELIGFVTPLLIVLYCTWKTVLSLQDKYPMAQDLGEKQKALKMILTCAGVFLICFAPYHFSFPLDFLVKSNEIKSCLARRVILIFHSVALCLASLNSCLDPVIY

CHRM1 = experiment: CRA against CHRM1
Source text: as §1
The inventors also sought to validate that the compounds identified using the CRA are modulatory compounds. To this end, the above-described CRA was used to screen a library for compounds that interact with three control non-orphan receptors, and the results of this screen were compared to the results of screening the same library for compound that were identified using a Fluorometric Imaging Plate Reader (FLIPR) assay, a conventional technique commonly used to identify compounds interacting with non-orphan GPCRs signaling through Ca^++. Three non-orphan GPCRs—Muscarinic acetylcholine receptor M1 (CHRM1), Adrenergic receptor alpha 1a (ADRA1a), and Neuropeptide S receptor (NPSR)—were screened against a 10,000-compound GPCR-focused library. Thirty interacting compound “hits” were identified using the CRA, and eighty-one hits were identified using the FLIPR for the CHRM1 receptor; 9 CRA hits and 29 FLIPR hits for the NPS receptor were identified; and 110 CRA hits and 110 FLIPR hits for ADRA1a.
In addition, the CRA can also provide the relative potencies of compounds against the target receptor.

ADBR2 = molecular target: T2, ADBR2 (Homo sapiens, UniProt P07550); experiment: CRE-Luc reporter assay with control receptor ADBR2
T2 construct: host or cells: HEK293 or CHO cell lines (ATCC)
Protocol: The DNA/lipofectamine 2000 mix (3000 μL) was incubated at room temperature for 30 minutes and then added into a 10 cm culture dish (Corning, NY) containing 70-90% confluent cultured cells, (HEK293 or CHO cell lines (ATCC, VA)), in 15 mL of media. […] The cells were further incubated at 37° C. for various times. The media were removed and the cells lysed.
Compounds were tested in the reporter system with increasing concentrations of GPR174-interacting compounds.
The DNA/lipofectamine 2000 mix (3000 μL) was incubated at room temperature for 30 minutes and then added into a 10 cm culture dish (Corning, NY) containing 70-90% confluent cultured cells, typically HEK293 or CHO cell lines (ATCC, VA), in 15 mL of media. […] Media (26 mL) were added to the detached cells and 120 μL of transfected cells were transferred to each well on a 96-well plate. Increasing concentration of each compound in DMSO (1.2 μl) was added to the cells after plating into the 96-well plate. The cells were further incubated at 37° C. for various times. The media were removed, and the cells lysed.
ADBR2 is a GPCR, like GPR174, that activates the Gs signaling pathway.

GPR174 [2] = molecular target: T1, GPR174; experiment: CRE-Luc reporter Gs signaling assay with GPR174; parameters: host or cells: HEK293 or CHO cell lines (ATCC); settings: for Gs pathway in the presence of GPR174 (CRE-Luc reporter): increasing concentrations of compound; for EC50: multiple values = separate experiments
Target sequence in this assay (Q9BXC1 whole entry): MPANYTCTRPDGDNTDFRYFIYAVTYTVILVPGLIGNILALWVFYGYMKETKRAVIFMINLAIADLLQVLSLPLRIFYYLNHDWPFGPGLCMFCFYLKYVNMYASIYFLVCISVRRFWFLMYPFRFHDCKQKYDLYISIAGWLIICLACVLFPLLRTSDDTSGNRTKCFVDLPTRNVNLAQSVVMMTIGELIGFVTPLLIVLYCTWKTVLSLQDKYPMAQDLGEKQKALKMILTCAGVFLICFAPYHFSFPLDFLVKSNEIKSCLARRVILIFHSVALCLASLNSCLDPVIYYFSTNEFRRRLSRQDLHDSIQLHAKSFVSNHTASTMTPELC

T2 sequence (P07550 whole entry): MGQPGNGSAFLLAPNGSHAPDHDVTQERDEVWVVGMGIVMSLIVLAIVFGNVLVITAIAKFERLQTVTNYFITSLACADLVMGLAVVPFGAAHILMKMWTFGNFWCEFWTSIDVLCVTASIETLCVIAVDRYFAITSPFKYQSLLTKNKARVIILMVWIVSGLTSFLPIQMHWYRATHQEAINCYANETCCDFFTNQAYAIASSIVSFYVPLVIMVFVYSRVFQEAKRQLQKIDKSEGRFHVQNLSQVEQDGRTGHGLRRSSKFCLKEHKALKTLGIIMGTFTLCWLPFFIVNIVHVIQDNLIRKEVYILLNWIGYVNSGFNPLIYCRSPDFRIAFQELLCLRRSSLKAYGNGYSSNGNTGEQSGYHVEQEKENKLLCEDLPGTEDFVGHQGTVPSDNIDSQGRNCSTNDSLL

Row | Compound | dose-response curve against GPR174 in the CRA (FIG. 5A) (GPR174 [1]) | EC50 (GPR174 [1]; multiple values = separate experiments) | activity against CHRM1 in the CRA (FIG. 5B) (CHRM1) | Gs pathway in the presence of ADBR2 (CRE-Luc reporter) (ADBR2) | Gs pathway in the presence of GPR174 (CRE-Luc reporter) (GPR174 [2]) | Fold decrease in Gs signaling activity (GPR174 [2]; pCRE-Luc reporter) | EC50 (GPR174 [2]; pCRE-Luc reporter) | Human GPR174 CRE Activity: nature of the compound (IA, antagonist, NM) (GPR174 [2]; pCRE-Luc reporter)
1 | CCOC(=O)N1CCN(c2cc(N3CCC(C)CC3)c(F)cc2[N+](=O)[O-])CC1 [compound 1] | show a dose-response curve | 2100 nM | do not show any activity | did not inhibit | inhibited | 2.9 fold | 400 nM and 800 nM | 
2 | CC(=O)N1CCN(c2cc(N3CCCCC3)c(F)cc2[N+](=O)[O-])CC1 [compound 2] | show a dose-response curve |  | do not show any activity | did not inhibit | inhibited | 1.7 fold | 400 nM and 300 nM | 
3 | CC(=O)c1ccc(N2CCN(C(=O)c3ccc(F)cc3)CC2)c(F)c1 [compound 3] | show a dose-response curve |  | do not show any activity |  |  |  |  | Antagonist or allostetic modulator
